Among the data in ChEMBL document CHEMBL1149454, “Synthesis and in vitro antitubercular activity of some 1-[(4-sub)phenyl]-3-(4-{1-[(pyridine-4-carbonyl)hydrazono]ethyl}phenyl)thiourea” (Bioorg Med Chem Lett, 2006) are IC50, MIC and Selectivity index values, retold here.

In brackets after ≈: the same amount, converted by molar mass.

For test [1], the system named is Vero. The test can be described thus: Inhibition of mammalian Vero cell viability at 6.25 and 62.5 ug/ml by MTT assay. The class given is functional, cell-based. To be noted: Chlorocebus sabaeus.
Test [2] concerns Mycobacterium tuberculosis. Description: Antibacterial activity against Mycobacterium tuberculosis H37Rv. The class given is functional.
The subject of test [3] is Vero. The test can be described thus: Selectivity index as ratio of IC50 over MIC. It counts as functional.

A word on the IC50: it is the point on the concentration scale where inhibition reaches its midpoint. A high value points to weaker potency. A word on the MIC: it is the least concentration at which growth counts as inhibited. Read a low MIC as greater potency. Take `COc1ccc(N/C(S)=N\c2ccc(/C(C)=N\NC(=O)c3ccncc3)cc2)cc1`: the half-inhibitory concentration (IC50) in test [1] is over 149 µM. The same compound displayed a minimal inhibitory concentration (MIC) in test [2] of 0.47 µM (≈ 0.197 µg/mL).
The like results for `CCOc1ccc(N/C(S)=N\c2ccc(/C(C)=N\NC(=O)c3ccncc3)cc2)cc1` were, in that order, 144 µM and 0.89 µM (≈ 0.386 µg/mL).
In test [1], `C/C(=N/NC(=O)c1ccncc1)c1ccc(N/C(S)=N/c2ccc(Br)cc2)cc1` displayed an IC50 of 133 µM. Besides, it took 1.66 µM (≈ 0.778 µg/mL) to inhibit growth in test [2] (MIC).
Taken in the same sequence, the figures for `NNC(=O)c1ccncc1` [ISONIAZID] were over 455 µM and 1.46 µM (≈ 0.2 µg/mL).
The like results for `C/C(=N/NC(=O)c1ccncc1)c1ccc(N/C(S)=N/c2ccccc2)cc1` were, in that order, 160 µM and 4 µM (≈ 1.56 µg/mL).
The like results for `C/C(=N/NC(=O)c1ccncc1)c1ccc(N/C(S)=N/c2ccc(C)cc2)cc1` were, in that order, 155 µM and 1.93 µM (≈ 0.779 µg/mL).
Regarding `C/C(=N/NC(=O)c1ccncc1)c1ccc(N/C(S)=N/c2ccc(F)cc2)cc1`, the IC50 in test [1] was over 153 µM. The compound further registered a minimal inhibitory concentration (MIC) in test [2] of 0.49 µM (≈ 0.2 µg/mL). Further, the Selectivity index in test [3] is reported as over 312.
